This is an account of results in patent US11753410B2, “Hormone receptor modulators for treating metabolic mutagenic and fibrotic conditions and disorders” (priority 2017, dated 2023).

This experiment deals with T1, ligand binding domain of human FXR (Homo sapiens, UniProt Q96RI1).
T1 construct: purchased Thermofisher (LanthaScreen) PV4833
T1 sequence (Q96RI1 262-486 limits assumed): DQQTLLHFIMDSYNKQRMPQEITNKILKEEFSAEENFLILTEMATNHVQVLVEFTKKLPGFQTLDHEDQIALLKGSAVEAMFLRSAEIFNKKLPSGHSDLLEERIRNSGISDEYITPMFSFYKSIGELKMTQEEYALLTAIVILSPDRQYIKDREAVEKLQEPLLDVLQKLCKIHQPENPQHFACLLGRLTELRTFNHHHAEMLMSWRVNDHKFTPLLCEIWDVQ
As to the kind of experiment: biochemical. Particulars: for Emax: extent of activation relative to GW4064, read-out: Ligand Binding % Efficacy; for EC50: −log EC50, concentration required to produce 50% activation, FRET 520 nm/495 nm, 1 hour at room temperature, read-out: Ligand Binding pEC50 (converted). Here is the method:
The affinity of FXR ligands for the ligand binding domain of FXR was determined using a commercially available human FXR ligand binding assay (LanthaScreen, Thermofisher Cat #PV4833). […] Binding of FXR ligands to the FXR ligand binding domain promotes binding of the fluorescein-labelled SRC2-2 peptide. This causes a FRET signal between the terbium-labelled anti-GST antibody and the fluorescein-labelled SRC peptide which are both bound to the FXR ligand binding domain.
Test compounds are dissolved in DMSO and a 3-fold serial dilution series is generated, then further diluted into assay buffer. The compounds are mixed with 5 nM GST-tagged FXR ligand binding domain, 5 nM Tb-labelled anti-GST antibody and 500 nM fluorescein-labelled SRC2-2 peptide in a pH7.4 buffer. The reaction is incubated at room temperature for 1 hour, then the FRET signal is measured as the ratio of the 520 nm/495 nm emission following excitation at 340 nm. The change in FRET signal is plotted against the test article concentration and fit to a 3-parameter logistical equation.

`Cc1cccc(C)c1-n1ncc(C2CC2)c1CO[C@@H]1C[C@@H]2C[C@H]1CN2c1ccc(C(=O)O)c(F)c1` [Compound I-7, 4-[(1S,4S,5R)-5-{[4-cyclopropyl-1-(2,6-dimethylphenyl)-1H-pyrazol-5-yl]methoxy}-2-azabicyclo[2.2.1]heptan-2-yl]-2-fluorobenzoic acid]: the Emax is 134% and the EC50 is 25.1 nM. The like results for `O=C(O)c1ccc(N2C[C@@H]3C[C@H]2C[C@H]3OCc2c(C3CC3)cnn2-c2c(F)cccc2Cl)cc1F` [Compound I-9, 4-[(1S,4S,5R)-5-{[1-(2-chloro-6-fluorophenyl)-4-cyclopropyl-1H-pyrazol-5-yl]methoxy}-2-azabicyclo[2.2.1]heptan-2-yl]-2-fluorobenzoic acid] were, in that order, 164% and 39.8 nM.

On to `O=C(O)c1ncc(N2C[C@@H]3C[C@H]2C[C@H]3OCc2c(C3CC3)cnn2-c2c(Cl)cccc2Cl)cn1` [Compound I-6, 5-[(1S,4S,5R)-5-{[4-cyclopropyl-1-(2,6-dichlorophenyl)-1H-pyrazol-5-yl]methoxy}-2-azabicyclo[2.2.1]heptan-2-yl]pyrimidine-2-carboxylic acid], for which the Emax was 101%. For `Cc1cccc(Cl)c1-n1ncc(C2CC2)c1CO[C@@H]1C[C@@H]2C[C@H]1CN2c1ccc(C(=O)O)c(F)c1` [Compound I-8, 4-[(1S,4S,5R)-5-{[1-(2-chloro-6-methylphenyl)-4-cyclopropyl-1H-pyrazol-5-yl]methoxy}-2-azabicyclo[2.2.1]heptan-2-yl]-2-fluorobenzoic acid], the Emax was 164% and the EC50 is 7.94 nM. The like results for `O=C(O)c1ccc(N2C(=O)[C@@H]3C[C@H]2C[C@H]3OCc2c(C3CC3)cnn2-c2c(Cl)cccc2Cl)cc1F` [Compound I-12, 4-[(1S,4R,5R)-5-{[4-cyclopropyl-1-(2,6-dichlorophenyl)-1H-pyrazol-5-yl]methoxy}-3-oxo-2-azabicyclo[2.2.1]heptan-2-yl]-2-fluorobenzoic acid] were, in that order, 176% and 39.8 nM. The like results for `O=C(O)C1CC(c2ccc(N3C[C@@H]4C[C@H]3C[C@H]4OCc3c(C4CC4)cnn3-c3c(Cl)cccc3Cl)c(F)c2)C1` (stereo partly drawn) [Compound I-40, 3-{4-[(1S,4S,5R)-5-{[4-cyclopropyl-1-(2,6-dichlorophenyl)-1H-pyrazol-5-yl]methoxy}-2-azabicyclo[2.2.1]heptan-2-yl]-3-fluorophenyl}cyclobutane-1-carboxylic acid] were, in that order, 156% and 31.6 nM. The like results for `O=C(NS(=O)(=O)C1CCOCC1)c1ccc(N2C(=O)[C@@H]3C[C@H]2C[C@H]3OCc2c(C3CC3)cnn2-c2c(Cl)cccc2Cl)cc1F` [Compound I-27, 4-((1S,4R,5R)-5-((4-cyclopropyl-1-(2,6-dichlorophenyl)-1H-pyrazol-5-yl)methoxy)-3-oxo-2-azabicyclo[2.2.1]heptan-2-yl)-2-fluoro-N-((tetrahydro-2H-pyran-4-yl)sulfonyl)benzamide] were, in that order, 185% and 5.01 nM. As to `O=C(O)c1c(F)cc(N2C[C@@H]3C[C@H]2C[C@H]3OCc2c(C3CC3)cnn2-c2c(Cl)cccc2Cl)cc1F` [Compound I-3, 4-[(1S,4S,5R)-5-{[4-cyclopropyl-1-(2,6-dichlorophenyl)-1H-pyrazol-5-yl]methoxy}-2-azabicyclo[2.2.1]heptan-2-yl]-2,6-difluorobenzoic acid], the Emax worked out at 156% and the EC50 was 39.8 nM. `Cc1cccc(C)c1-n1ncc(C2CC2)c1CO[C@@H]1C[C@@H]2C[C@H]1CN2c1ccc(CCC(=O)O)cc1F` [Compound I-36, 3-{4-[(1S,4S,5R)-5-{[4-cyclopropyl-1-(2,6-dimethylphenyl)-1H-pyrazol-5-yl]methoxy}-2-azabicyclo[2.2.1]heptan-2-yl]-3-fluorophenyl}propanoic acid]: the Emax was determined as 134% and the EC50 is 158 nM. The like results for `O=C(NS(=O)(=O)C1CCOCC1)c1ccc(N2C(=O)[C@@H]3C[C@H]2C[C@H]3OCc2c(C3CC3)cnn2-c2c(Cl)cccc2Cl)cc1` [Compound I-26, 4-((1S,4R,5R)-5-((4-cyclopropyl-1-(2,6-dichlorophenyl)-1H-pyrazol-5-yl)methoxy)-3-oxo-2-azabicyclo[2.2.1]heptan-2-yl)-N-((tetrahydro-2H-pyran-4-yl)sulfonyl)benzamide] were, in that order, 169% and 10 nM. On the same counts, the results for `CC[C@@H]1[C@@H]2C[C@@H](C[C@H]2OCc2c(C3CC3)cnn2-c2c(Cl)cccc2Cl)N1c1ccc(C(=O)O)cc1` [Compound I-16, 4-[(1S,3R,4S,5R)-5-{[4-cyclopropyl-1-(2,6-dichlorophenyl)-1H-pyrazol-5-yl]methoxy}-3-ethyl-2-azabicyclo[2.2.1]heptan-2-yl]benzoic acid] are 52% and 1000 nM.

`O=C(O)CCc1ccc(N2C[C@@H]3C[C@H]2C[C@H]3OCc2c(C3CC3)cnn2-c2c(F)cccc2Cl)c(F)c1` [Compound I-38, 3-{4-[(1S,4S,5R)-5-{[1-(2-chloro-6-fluorophenyl)-4-cyclopropyl-1H-pyrazol-5-yl]methoxy}-2-azabicyclo[2.2.1]heptan-2-yl]-3-fluorophenyl}propanoic acid]: the Emax turned out to be 185% and the EC50 was 158 nM. `C[C@@H]1[C@@H]2C[C@@H](C[C@H]2OCc2c(C3CC3)cnn2-c2c(Cl)cccc2Cl)N1c1ccc(C(=O)NS(=O)(=O)C2CC2)c(F)c1` [Compound I-29, N-(cyclopropanesulfonyl)-4-[(1S,3R,4S,5R)-5-{[4-cyclopropyl-1-(2,6-dichlorophenyl)-1H-pyrazol-5-yl]methoxy}-3-methyl-2-azabicyclo[2.2.1]heptan-2-yl]-2-fluorobenzamide]: the Emax turned out to be 59% and the EC50 is 200 nM.

For the molecule `O=C(O)CCc1ccc(N2C(=O)[C@@H]3C[C@H]2C[C@H]3OCc2c(C3CC3)cnn2-c2c(Cl)cccc2Cl)c(F)c1` [Compound I-39, 3-{4-[(1S,4R,5R)-5-{[4-cyclopropyl-1-(2,6-dichlorophenyl)-1H-pyrazol-5-yl]methoxy}-3-oxo-2-azabicyclo[2.2.1]heptan-2-yl]-3-fluorophenyl}propanoic acid], the Emax amounted to 136%. Turning to `C[C@@H]1[C@@H]2C[C@@H](C[C@H]2OCc2c(C3CC3)cnn2-c2c(Cl)cccc2Cl)N1c1ccc(C(=O)O)cc1` [Compound I-14, 4-[(1S,3R,4S,5R)-5-{[4-cyclopropyl-1-(2,6-dichlorophenyl)-1H-pyrazol-5-yl]methoxy}-3-methyl-2-azabicyclo[2.2.1]heptan-2-yl]benzoic acid], the Emax stood at 48% and the EC50 was 398 nM. On the same counts, the results for `C[C@@H]1[C@@H]2C[C@@H](C[C@H]2OCc2c(C3CC3)cnn2-c2c(Cl)cccc2Cl)N1c1ccc(C(=O)NS(=O)(=O)C2CCOCC2)c(F)c1` [Compound I-28, 4-((1S,3R,4S,5R)-5-((4-cyclopropyl-1-(2,6-dichlorophenyl)-1H-pyrazol-5-yl)methoxy)-3-methyl-2-azabicyclo[2.2.1]heptan-2-yl)-2-fluoro-N-((tetrahydro-2H-pyran-4-yl)sulfonyl)benzamide] are 56% and 398 nM.

Consider `Cc1cccc(Cl)c1-n1ncc(C2CC2)c1CO[C@@H]1C[C@@H]2C[C@H]1CN2c1ccc(CCC(=O)O)cc1F` [Compound I-37, 3-{4-[(1S,4S,5R)-5-{[1-(2-chloro-6-methylphenyl)-4-cyclopropyl-1H-pyrazol-5-yl]methoxy}-2-azabicyclo[2.2.1]heptan-2-yl]-3-fluorophenyl}propanoic acid], for which the Emax was 176% and the EC50 was 39.8 nM. As for `CC1(C)CC(S(=O)(=O)NC(=O)c2ccc(N3C[C@@H]4C[C@H]3C[C@H]4OCc3c(C4CC4)cnn3-c3c(Cl)cccc3Cl)cc2)CCO1` (stereo partly drawn) [Compound I-21, 4-[(1S,4S,5R)-5-{[4-cyclopropyl-1-(2,6-dichlorophenyl)-1H-pyrazol-5-yl]methoxy}-2-azabicyclo[2.2.1]heptan-2-yl]-N-[(2,2-dimethyloxan-4-yl)sulfonyl]benzamide], the Emax is 174% and the EC50 is 1.58 nM. On the same counts, the results for `O=C(O)c1ccc(N2C(=O)[C@@H]3C[C@H]2C[C@H]3OCc2c(C3CC3)cnn2-c2c(Cl)cccc2Cl)c(F)c1` [Compound I-13, 4-[(1S,4R,5R)-5-{[4-cyclopropyl-1-(2,6-dichlorophenyl)-1H-pyrazol-5-yl]methoxy}-3-oxo-2-azabicyclo[2.2.1]heptan-2-yl]-3-fluorobenzoic acid] are 142% and 158 nM. Take `O=C(O)CCc1ccc(N2C[C@@H]3C[C@H]2C[C@H]3OCc2c(C3CC3)cnn2-c2c(F)cccc2F)c(F)c1` [Compound I-35, 3-{4-[(1S,4S,5R)-5-{[4-cyclopropyl-1-(2,6-difluorophenyl)-1H-pyrazol-5-yl]methoxy}-2-azabicyclo[2.2.1]heptan-2-yl]-3-fluorophenyl}propanoic acid]: the Emax came to 152% and the EC50 was 631 nM.
